We go through three molecules from patent US5607707A, “Compositions” (priority 1992, dated 1997).

How the values of data set [1] were obtained:
The colour stability of the compositions according to the present invention were determined using the following simulated shelf and accelerated storage tests.
This is illustrated with data from a study in which combinations of β-carotene, apo-carotenal and ascorbic acid were incorporated in a typical beverage formulation. The products were stored in bright daylight conditions for a period of 30 days and the colour loss at the end of this period was determined by spectrophotometry.

Data set [2] in a line: Water solubility / dissolution. It counts as physicochemical. Particulars: primary addition of apo-carotenal, in words.
A short description of data set [3]: Effect of temperature on amount of emulsifier required to achieve optical clarity (Example 6). The class given is physicochemical. Particulars: for Tween 60 required to achieve optical clarity: 1 g crystalline β-carotene. The procedure: One advantage of the present invention is the wide range of temperatures which can be used in b) above. The temperature developed in mixing in b) is preferably 80°-160° or 180°-200° C. The lower temperatures are particularly useful where more temperature sensitive ingredients are involved. […] Therefore to minimise the amount of emulsifier(s) used, a temperature of not less than 160° C. or preferably 180° C. is preferred. The use of these high temperatures incurs the risk of degradation of pigment unless suitable precautions are taken. For example it is necessary to incorporate an antioxidant in the initial stages of preparation and it is desirable to exclude oxygen by heating the mixture in an atmosphere of nitrogen.
1 g of crystalline β-carotene required the following amounts of Tween 60 at the temperatures stated

Regarding `CC(C=O)=CC=CC(C)=CC=CC=C(C)C=CC=C(C)C=CC1=C(C)CCCC1(C)C` [apo-carotenal, β-8'-apo-carotenal], the “stabilising effect on colour” value in data set [1] is on record as “helps to stabilise β-carotene”. In addition, the “effect on dissolution of carotene” value in data set [2] was “promoting the dissolution of carotene”.
As to `O=C1O[C@H]([C@@H](O)CO)C(O)=C1O` [ascorbic acid], the “stabilising effect on colour” value in data set [1] is “effective in reinforcing the stabilising effect of the antioxidants”.
With `CC1=C(/C=C/C(C)=C/C=C/C(C)=C/C=C/C=C(C)/C=C/C=C(C)/C=C/C2=C(C)CCCC2(C)C)C(C)(C)CCC1` [crystalline β-carotene, β-carotene], the “Tween 60 required to achieve optical clarity” value is given as 10.5 g in data set [3] (140 °C), 7.5 g in data set [3] (160 °C), 4.0 g in data set [3] (180 °C) and 3.0 g in data set [3] (200 °C). In addition, the “effect of temperature on emulsifier required to achieve optical clarity” value in data set [3] (pure β-carotene, in words) is given as “an increase in temperature permits a reduction in the amount of emulsifier(s) required”.
